In US5024994A, “Renin inhibitors IV” (Warner-Lambert Company, priority 1988, dated 1991):
Non-standard residues stand in square brackets, D forms with d. Residues, ends and D or L forms follow the SMILES beside them. *: point of attachment. Arg(NO2) = N=C(NCCC[C@H](N)C(=O)O)N[N+](=O)[O-]; Sta = CC(C)C[C@H](N)[C@@H](O)CC(=O)O; Boc = CC(C)(C)OC(=O)*; NHBn = c1ccc(CN*)cc1

These molecules were tested against T1, renin (Homo sapiens, UniProt P00797) (assay: in vitro renin inhibitory activity, radioimmunoassay for angiotensin I). Settings: not given.
T1 sequence (P00797 67-406): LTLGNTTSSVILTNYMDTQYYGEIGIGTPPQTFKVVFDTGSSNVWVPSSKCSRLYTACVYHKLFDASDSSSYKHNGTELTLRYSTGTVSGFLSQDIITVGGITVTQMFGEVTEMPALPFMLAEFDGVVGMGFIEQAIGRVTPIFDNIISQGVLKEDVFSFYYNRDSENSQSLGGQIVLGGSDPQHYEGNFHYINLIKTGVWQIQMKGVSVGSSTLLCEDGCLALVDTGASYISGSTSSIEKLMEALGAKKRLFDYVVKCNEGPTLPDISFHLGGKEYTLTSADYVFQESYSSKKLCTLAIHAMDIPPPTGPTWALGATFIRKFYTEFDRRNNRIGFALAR
Assay type: biochemical
Procedure: The effectiveness of the aforementioned compounds is determined by a test for in vitro renin inhibitory activity. This activity is determined by a standard radioimmunoassay for angiotensin I. In this assay the enzyme, renin, incubated for two hours at 37° in the presence of a substrate, angiotensinogen, generates the product, angiotensin I. Test compounds are added to the incubation mixture.

Row | Molecule | IC50
1 | CCC(C)CNC(=O)C[C@H](O)[C@H](CC(C)C)NC(=O)C(CC#CCNC(C)=O)NC(=O)C(Cc1cccc2ccccc12)Cc1cccc2ccccc12 (single isomer, unassigned) | 29 nM
2 | CC(C)C[C@H](NC(=O)C[C@H](O)[C@H](CC(C)C)NC(=O)C(CCCC1CO1)NC(=O)C(Cc1cccc2ccccc12)Cc1cccc2ccccc12)C(=O)NCc1ccccc1 (single isomer, unassigned) [drawing 65] | 57 nM
3 | CC[C@H](C)CNC(=O)C[C@H](O)[C@H](CC(C)C)NC(=O)[C@H](CCCCNS(=O)(=O)c1ccc(C)cc1)NC(=O)C(Cc1cccc2ccccc12)Cc1cccc2ccccc12 [Example 41, DNMA-LYS(TOS)-STA-NHCH2 CH(CH3)CH2 CH3] | 3000 nM

Same assay, conditions: at 10^-6 molar concentration; read-out: percent inhibition of renin activity

Row | Molecule | inhibition at 1 µM
4 | CC(C)C[C@H](NC(=O)C[C@H](O)[C@H](CC(C)C)NC(=O)C(CCCC1CO1)NC(=O)C(Cc1cccc2ccccc12)Cc1cccc2ccccc12)C(=O)NCc1ccccc1 (single isomer, unassigned) [drawing 66] | 47%

Same assay, conditions: read-out: IC50

Row | IC50 | Molecule
5 | 350 nM | CSC(=NC#N)NCCCC[C@H](NC(=O)C(CC(=O)N1CCOCC1)Cc1cccc2ccccc12)C(=O)N[C@@H](CC(C)C)[C@@H](O)CC(=O)NCCN1CCOCC1 (stereo partly shown)
6 | 420 nM | CC(C)C[C@H](NC(=O)[C@H](CCCCNC(=N)N[N+](=O)[O-])NC(=O)C(CC(=O)N1CCOCC1)Cc1cccc2ccccc12)[C@@H](O)CC(=O)NCCN1CCOCC1 (stereo partly shown)
7 | 560 nM | CNC(=S)NCCCC[C@H](NC(=O)C(CC(=O)N1CCOCC1)Cc1cccc2ccccc12)C(=O)N[C@@H](CC(C)C)[C@@H](O)CC(=O)NCCN1CCOCC1 (stereo partly shown)
8 | 29 nM | CNC(=S)NCCCC[C@H](NC(=O)C(Cc1cccc2ccccc12)Cc1cccc2ccccc12)C(=O)N[C@@H](CC1CCCCC1)[C@@H](O)CC(=O)NCCN1CCOCC1
9 | 20 nM | CNC(=S)NCCCC[C@H](NC(=O)C(CC(=O)N1CCOCC1)Cc1cccc2ccccc12)C(=O)N[C@@H](CC1CCCCC1)[C@@H](O)CC(=O)NCCN1CCOCC1 (stereo partly shown)
10 | 120 nM | CNC(=S)NCCCC[C@H](NC(=O)C(Cc1cccc2ccccc12)Cc1cccc2ccccc12)C(=O)N[C@@H](CC(C)C)[C@@H](O)CC(=O)NCCN1CCOCC1
11 | 45 nM | CC(C)C[C@H](NC(=O)[C@H](CCCCNC(=N)N[N+](=O)[O-])NC(=O)C(Cc1cccc2ccccc12)Cc1cccc2ccccc12)[C@@H](O)CC(=O)NCCN1CCOCC1

Second part, the molecule before the results:

Row | Molecule | IC50
12 | CC[C@H](C)CNC(=O)C[C@H](O)[C@H](CC(C)C)NC(=O)[C@H](CCCCNC(=O)C[S+](C)[O-])NC(=O)C(Cc1cccc2ccccc12)Cc1cccc2ccccc12 (stereo partly shown) | 41 nM
13 | CC[C@H](C)CNC(=O)C[C@H](O)[C@@H](NC(=O)[C@H](CCCCNC(=S)NC)NC(=O)C(Cc1cccc2ccccc12)Cc1cccc2ccccc12)C1CCCCC1 | 23 nM
14 | CSC(=NC#N)NCCCC[C@H](NC(=O)C(Cc1cccc2ccccc12)Cc1cccc2ccccc12)C(=O)N[C@@H](CC(C)C)[C@@H](O)CC(=O)NCCN1CCOCC1 | 90 nM
15 | CC[C@H](C)CNC(=O)C[C@H](O)[C@H](CC(C)C)NC(=O)[C@H](CCCCNC(=S)NC)NC(=O)C(Cc1ccccc1)Cc1cccc2ccccc12 (stereo partly shown) | 140 nM
16 | CCOC(=O)C(NC(=O)C(Cc1cccc2ccccc12)Cc1cccc2ccccc12)C(=O)N[C@@H](CC(C)C)[C@@H](O)CC(=O)N[C@@H](CC(C)C)C(=O)NCc1ccccn1 (stereo partly shown) | 13 nM
17 | C=CCCCC(NC(=O)C(Cc1cccc2ccccc12)Cc1cccc2ccccc12)C(=O)N[C@@H](CC(C)C)[C@@H](O)CC(=O)N[C@@H](CC(C)C)C(=O)NCc1ccccc1 (single isomer, unassigned; isomer a) [Example 48, DNMA-NHCH(CH2 CH2 CH2 CH=CH2)CO-STA-LEU-NHCH2 Ph (ISOMER A)] | 91 nM
18 | C=CCCCC(NC(=O)C(Cc1cccc2ccccc12)Cc1cccc2ccccc12)C(=O)N[C@@H](CC(C)C)[C@@H](O)CC(=O)N[C@@H](CC(C)C)C(=O)NCc1ccccc1 (single isomer, unassigned; isomer b) [Example 49, DNMA-NHCH(CH2 CH2 CH2 CH=CH2)CO-STA-LEU-NHCH2 Ph (ISOMER B)] | 3500 nM
19 | CC(C)C[C@H](NC(=O)C[C@H](O)[C@H](CC(C)C)NC(=O)[C@H](CCCNC(=N)N[N+](=O)[O-])NC(=O)[C@H](Cc1ccccc1)NC(=O)OC(C)(C)C)C(=O)NCc1ccccc1 [Example 1, BOC-PHE-ARG(NO2)-STA-LEU-NHCH2 Ph] (Boc-F[Arg(NO2)][Sta]L-NHBn) | 63 nM
20 | CC(C)C[C@H](NC(=O)C[C@H](O)[C@H](CC(C)C)NC(=O)[C@H](CCCN1C(=O)c2ccccc2C1=O)NC(=O)[C@H](Cc1ccccc1)NC(=O)OC(C)(C)C)C(=O)NCc1ccccc1 [Example 4, BOC-PHE-ORN(PHT)-STA-LEU-NHCH2 Ph] | 910 nM
21 | CC[C@H](C)CNC(=O)C[C@H](O)[C@H](CC(C)C)NC(=O)[C@H](CCCCNC(=O)OC)NC(=O)C(Cc1cccc2ccccc12)Cc1cccc2ccccc12 [Example 42, DNMA-LYS(CO2 CH3)-STA-NHCH2 CH(CH3)CH2 CH3] | 60 nM

Same assay, conditions: renin incubated two hours at 37° with angiotensinogen; molar concentration causing 50% inhibition; read-out: IC50

Row | Molecule | IC50
22 | DNMA-LYS(Z)-STA-LEU-NHCH2 Ph | 2900 nM
